Laboratory results reported in patent publication EP0221541A2, “Quinolonecarboxylic acid derivatives and their preparation” (KYORIN PHARMACEUTICAL CO., LTD., priority 1985, dated 1987).
Values after ≈ are worked out from the molar mass of the structure shown. Counter-ions that a name gives are not always drawn. Like-named read-outs stand apart in the source and are kept apart here.

Assays:
Assay type in all cases: cell-based
[1] = system: Veillonella parvula KYA 10790; experiment: MIC, antibacterial spectrum (anaerobic bacteria); details: KYA10790, Veillonella parvula KYA 10790, Gram -, 10^6 cells/ml
[2] = system: Yersinia enterocolitica IID 981; experiment: MIC, antibacterial spectrum (aerobic bacteria); details: IID981; Yersinia enterocolitica IID 981, Gram -, 10^6 cells/ml, aerobic; read-out: MIC
[3] = system: Proteus vulgaris IFO 3167; experiment: MIC, antibacterial spectrum (aerobic bacteria); details: IFO3167; Proteus vulgaris IFO 3167, Gram -, 10^6 cells/ml, aerobic; read-out: MIC
E. coli ML 4707 = experiment: MIC, antibacterial spectrum (aerobic bacteria); details: Escherichia coli, ML4707; E. coli ML 4707, Gram -, 10^6 cells/ml, aerobic; read-out: MIC
C. ramosum = experiment: MIC, antibacterial spectrum (anaerobic bacteria); details: Thomasclavelia ramosa; C. ramosum, Gram +, 10^6 cells/ml, anaerobic; read-out: MIC
K. pneumoniae 1-220S = experiment: MIC, antibacterial spectrum (aerobic bacteria); details: Klebsiella pneumoniae, 1220S; K. pneumoniae 1-220S, Gram -, 10^6 cells/ml, aerobic; read-out: MIC
E. coli ATCC 10536 = experiment: MIC, antibacterial spectrum (aerobic bacteria); details: Escherichia coli, ATCC10536; E. coli ATCC 10536, Gram -, 10^6 cells/ml, aerobic; read-out: MIC
[4] = system: Peptococcus magnus KY 017; experiment: MIC, antibacterial spectrum (anaerobic bacteria); details: Finegoldia magna, KY017; Peptococcus magnus KY 017, Gram +, 10^6 cells/ml, anaerobic; read-out: MIC
S. pyogenes IID 692 = experiment: MIC, antibacterial spectrum (aerobic bacteria); details: Streptococcus pyogenes, IID692; S. pyogenes IID 692, Gram +, 10^6 cells/ml, aerobic; read-out: MIC
Pst. micros UPI 5464-1 = experiment: MIC, antibacterial spectrum (anaerobic bacteria); details: Parvimonas micra, UPI54641, Pst. micros UPI 5464-1, Gram +, 10^6 cells/ml
[5] = system: Streptococcus pneumoniae IID 552; experiment: MIC, antibacterial spectrum (aerobic bacteria); details: IID552; Streptococcus pneumoniae IID 552, Gram +, 10^6 cells/ml, aerobic; read-out: MIC
B. fragilis 0558 = experiment: MIC, antibacterial spectrum (anaerobic bacteria); details: Bacteroides fragilis; B. fragilis 0558, Gram -, 10^6 cells/ml, anaerobic; read-out: MIC
P. aeruginosa IFO 12689 = experiment: MIC, antibacterial spectrum (aerobic bacteria); details: Pseudomonas aeruginosa, IFO12689; P. aeruginosa IFO 12689, Gram -, 10^6 cells/ml, aerobic; read-out: MIC
E. faecalis IID 682 = experiment: MIC, antibacterial spectrum (aerobic bacteria); details: Enterococcus faecalis, IID682; E. faecalis IID 682, Gram +, 10^6 cells/ml, aerobic; read-out: MIC
[6] = system: Enterobacter cloacae IID 977; experiment: MIC, antibacterial spectrum (aerobic bacteria); details: IID977
[7] = system: Bacteroides fragilis GM 7000; experiment: MIC, antibacterial spectrum (anaerobic bacteria); details: GM7000; Bacteroides fragilis GM 7000, Gram -, 10^6 cells/ml, anaerobic; read-out: MIC
C. perfringens KYA 13123 = experiment: microbe, parasite or virus in culture; details: Clostridium perfringens, KYA13123
[8] = system: Fusobacterium necrophorum S-45; experiment: MIC, antibacterial spectrum (anaerobic bacteria); details: S45; Fusobacterium necrophorum S-45, Gram -, 10^6 cells/ml, anaerobic; read-out: MIC
B. fragilis 25285 = experiment: MIC, antibacterial spectrum (anaerobic bacteria); details: Bacteroides fragilis; B. fragilis 25285, Gram -, 10^6 cells/ml, anaerobic; read-out: MIC
S. aureus Smith = experiment: MIC, antibacterial spectrum (aerobic bacteria); details: Staphylococcus aureus; S. aureus Smith, Gram +, 10^6 cells/ml, aerobic; read-out: MIC
[9] = system: Klebsiella pneumoniae KY(GN)6445; experiment: MIC, antibacterial spectrum (aerobic bacteria); details: Klebsiella pneumoniae KY(GN)6445, Gram -, 10^6 cells/ml, aerobic; read-out: MIC
[10] = system: Salmonella enteritidis IID 604; experiment: MIC, antibacterial spectrum (aerobic bacteria); details: Salmonella enterica; Salmonella enteritidis IID 604, Gram -, 10^6 cells/ml, aerobic; read-out: MIC
[11] = system: S. pyogenes IID 689 (S-8); experiment: MIC, antibacterial spectrum (aerobic bacteria); details: Streptococcus pyogenes, IID689; S. pyogenes IID 689 (S-8), Gram +, 10^6 cells/ml, aerobic; read-out: MIC
F. varium KYA 8501 = experiment: MIC, antibacterial spectrum (anaerobic bacteria); details: Fusobacterium varium, KYA8501, F. varium KYA 8501, Gram -, 10^6 cells/ml
S. marcescens GN 7577 = experiment: MIC, antibacterial spectrum (aerobic bacteria); details: Serratia marcescens, GN7577; S. marcescens GN 7577, Gram -, 10^6 cells/ml, aerobic; read-out: MIC
[12] = system: B. thetaiotaomicron (0661); experiment: MIC, antibacterial spectrum (anaerobic bacteria); details: Bacteroides thetaiotaomicron; B. thetaiotaomicron (0661), Gram -, 10^6 cells/ml, anaerobic; read-out: MIC
[13] = system: Alcaligenes faecalis 0114002; experiment: MIC, antibacterial spectrum (aerobic bacteria); details: Alcaligenes faecalis 0114002, Gram -, 10^6 cells/ml
[14] = system: Propionibacterium acens 11828; experiment: MIC, antibacterial spectrum (anaerobic bacteria); details: Propionibacterium acens 11828, Gram +, 10^6 cells/ml, anaerobic; read-out: MIC
[15] = system: Citrobacter freundii IID 976; experiment: MIC, antibacterial spectrum (aerobic bacteria); details: IID976; Citrobacter freundii IID 976, Gram -, 10^6 cells/ml, aerobic; read-out: MIC
[16] = Enterobacter cloacae IID 977, Gram -, 10^6 cells/ml, aerobic, read-out: MIC

SMILES	MIC [1] [µg/mL]	MIC [2] [µg/mL]	MIC [3] [µg/mL]	MIC (E. coli ML 4707) [µg/mL]	MIC (C. ramosum) [µg/mL]	MIC (K. pneumoniae 1-220S) [µg/mL]	MIC (E. coli ATCC 10536) [µg/mL]	MIC [4] [µg/mL]	MIC (S. pyogenes IID 692) [µg/mL]	MIC (Pst. micros UPI 5464-1) [µg/mL]	MIC [5] [µg/mL]	MIC (B. fragilis 0558) [µg/mL]	MIC (P. aeruginosa IFO 12689) [µg/mL]	MIC (E. faecalis IID 682) [µg/mL]	MIC [7] [µg/mL]	MIC (C. perfringens KYA 13123) [µg/mL]	MIC [8] [µg/mL]	MIC (B. fragilis 25285) [µg/mL]	MIC (S. aureus Smith) [µg/mL]	MIC [9] [µg/mL]	further results
O=C(O)c1cn(C2CC2)c2c(F)c(N3CCC(CNCCO)C3)c(F)cc2c1=O (stereo not drawn) [Exp. 1, 1-Cyclopropyl-6,8-difluoro-1,4-dihydro-7-[3-(2-hydroxyethylaminomethyl)-1-pyrrolidinyl]-4-oxo-3-quinolinecarboxylic acid]	0.39 (≈ 0.957 µM)	0.2 (≈ 0.491 µM)	0.05 (≈ 0.123 µM)	0.05 (≈ 0.123 µM)	0.78 (≈ 1.91 µM)	0.2 (≈ 0.491 µM)	0.05 (≈ 0.123 µM)	≤ 0.05	0.05 (≈ 0.123 µM)	0.39 (≈ 0.957 µM)	0.05 (≈ 0.123 µM)	0.78 (≈ 1.91 µM)	1.56 (≈ 3.83 µM)	0.1 (≈ 0.245 µM)	1.56 (≈ 3.83 µM)	0.2 (≈ 0.491 µM)	0.2 (≈ 0.491 µM)	1.56 (≈ 3.83 µM)	0.05 (≈ 0.123 µM)	0.05 (≈ 0.123 µM)	MIC [6, 16]: 0.2 µg/mL (≈ 0.491 µM); MIC [10]: 0.1 µg/mL (≈ 0.245 µM); MIC [11]: 0.025 µg/mL (≈ 0.0614 µM); MIC (F. varium KYA 8501): 0.78 µg/mL (≈ 1.91 µM); MIC (S. marcescens GN 7577): 3.13 µg/mL (≈ 7.68 µM); MIC [12]: 3.13 µg/mL (≈ 7.68 µM); MIC [13]: 0.78 µg/mL (≈ 1.91 µM); MIC [14]: 0.78 µg/mL (≈ 1.91 µM); MIC [15]: 0.05 µg/mL (≈ 0.123 µM)
O=C(O)c1cn(C2CC2)c2c(Cl)c(N3CCC(CNCCO)C3)c(F)cc2c1=O (stereo not drawn) [Exp. 3, 8-Chloro-1-cyclopropyl-6-fluoro-1,4-dihydro-7-(3-(2-hydroxyethylaminomethyl)-1-pyrrolidinyl]-4-oxo-3-quinolinecarboxylic acid]	0.1 (≈ 0.236 µM)	0.1 (≈ 0.236 µM)	0.025 (≈ 0.059 µM)	0.05 (≈ 0.118 µM)	0.39 (≈ 0.92 µM)	0.1 (≈ 0.236 µM)	0.025 (≈ 0.059 µM)	0.05 (≈ 0.118 µM)	0.0125 (≈ 0.0295 µM)	0.1 (≈ 0.236 µM)	0.0125 (≈ 0.0295 µM)	0.2 (≈ 0.472 µM)	1.56 (≈ 3.68 µM)	0.1 (≈ 0.236 µM)	0.39 (≈ 0.92 µM)	0.05 (≈ 0.118 µM)	0.1 (≈ 0.236 µM)	0.2 (≈ 0.472 µM)	0.0125 (≈ 0.0295 µM)	0.05 (≈ 0.118 µM)	MIC [6, 16]: 0.1 µg/mL (≈ 0.236 µM); MIC [10]: 0.1 µg/mL (≈ 0.236 µM); MIC [11]: 0.0125 µg/mL (≈ 0.0295 µM); MIC (F. varium KYA 8501): 0.39 µg/mL (≈ 0.92 µM); MIC (S. marcescens GN 7577): 1.56 µg/mL (≈ 3.68 µM); MIC [12]: 1.56 µg/mL (≈ 3.68 µM); MIC [13]: 0.39 µg/mL (≈ 0.92 µM); MIC [14]: 0.78 µg/mL (≈ 1.84 µM); MIC [15]: 0.05 µg/mL (≈ 0.118 µM)
O=C(O)c1cn(C2CC2)c2cc(N3CCC(CNCCO)C3)c(F)cc2c1=O (stereo not drawn) [Exp. 2, l-Cyclopropyl-6-fluoro-l,4-dihydro-7-[3-(2-hydroxyethylaminomethyl)-l-pyrrolidinyl]-4-oxo-3-quinolinecarboxylic acid hydrochloride]	3.13	0.78	0.2	0.2	25	0.78	0.1	0.2	0.1	3.13	0.1	50	6.25	0.78	100	1.56	0.78	50	0.39	0.39	MIC ([6]; Enterobacter cloacae): 1.56 µg/mL; MIC [10]: 0.39 µg/mL; MIC [11]: 0.1 µg/mL; MIC (F. varium KYA 8501): 25 µg/mL; MIC (S. marcescens GN 7577): 25 µg/mL; MIC [12]: > 100 µg/mL; MIC [13]: 6.25 µg/mL; MIC [14]: 3.13 µg/mL; MIC [15]: 0.39 µg/mL
